Earlier results on six compounds are cited in patent US9801827B2, “Dosage forms for administering combinations of drugs” (Pozen Inc., priority 2006, dated 2017).

The conditions of the data set: pharmacokinetic half-life, given as examples of long acting NSAIDs.

In general, half-life refers to the time in which the quantity being followed falls by half. In the case of `CCc1cccc2c3c([nH]c12)C(CC)(CC(=O)O)OCC3` (stereo not drawn) [etodolac], the half-life entry is on record as “about 7 hours”.
For `CC(C(=O)O)c1ccc(-c2ccccc2)c(F)c1` (stereo not drawn) [flurbiprofen], the half-life result is listed as “about 6 hours”.
Regarding `O=C(c1ccccc1)c1ccc2n1CCC2C(=O)O` (stereo not drawn) [ketorolac], the half-life is 8 to 9 h.
`Cc1cccc(Nc2ccccc2C(=O)O)c1C` [mefenamic acid]: the half-life entry is “up to 4 hours”.
For `COc1ccc2cc(CCC(C)=O)ccc2c1` [nabumetone], the half-life was 22 to 30 h.
As to `O=C(O)CCc1nc(-c2ccccc2)c(-c2ccccc2)o1` [oxaprozin], the half-life was 42 to 50 h.
